Values of other authors in US8680293B2, “Substituted CC-1065 analogs and their conjugates” (Syntarga B.V., priority 2007, dated 2014).

Settings: reason it could not be used in the clinic

Q: Which hepatotoxicity does the source give for `COc1c(O)c2c(c3cc(C(=O)N4CCc5c4c(O)c(OC)c4[nH]c(C(=O)N6CC7CC78C6=CC(=O)c6[nH]cc(C)c68)cc54)[nH]c13)CCN2C(N)=O` (stereo not shown) [CC-1065] here?
A: serious delayed hepatotoxicity
